Laboratory results published in US9988405B2, “O-phenyl chalcone compounds and uses thereof” (Neopanora Bio-technology (Zhuhai) Ltd., priority 2014, dated 2018).
Where two headings read alike, the source gives them in different places.

What was measured:
Type in all cases: cell-based
[1] = test system: human nasopharyngeal carcinoma cells CNE2; assay: SRB anti-proliferative assay, CNE2; conditions: read-out: Anti-proliferative IC50, CNE2
Description: (§1) The present example evaluated the anti-tumor activity of the molecules provided by the present invention. The present example mainly used a method with SRB (sulforhodamine B) dying, in which proteins in the cell were stained with SRB dye to determine protein content in the cell so as to characterize cell growth density. Firstly, the test compound was formulated into a stock solution (10 mM), which was stored at 4° C. in a refrigerator. Prior to beginning the assay, the stock solution was diluted with DMSO into a series of different concentrations. The required concentrations were obtained by diluting with complete growth medium. Well growing cells were seeded in a 96-well plate (5000 cells/well, 100 uL) and cultured in an incubator at 37° C., 5% CO2, and 90% RH. 24 h later, the prepared compound solution (100 μL) was slowly added to cell solution in the 96-well plate, and the well with DMSO (final concentration 0.5%) instead of the drug was used as a drug free control. The plate was incubated for 48 h. In addition, a day 0 plate that was drug free was directly detected after cell seeded in the plate for 24 h. The 96-well plate was taken out and added with trichloroacetic acid (50 μL, final concentration 10%). The plate was incubated at 4° C. for 1 h to fix the cells.
(§2) The plate was washed with ultrapure water and air-dried. The plate was then stained with SRB dye (0.4% in 1% acetic acid, 100 μL) for 30 min at room temperature. The plate was then washed with 1% acetic acid and then air-dried. A Tris base solution (100 μL, 10 mM, pH10.4) was added, after which the plate was gently shaken for 1 h on an orbital shaker to ensure that the dyes were completed dissolved. The optical density (OD) was recorded on a TECAN Infinite M200 Pro multimode reader at 515 nm. The cell growth (% of control)=(OD value of wells added with drug−mean OD value of Day 0 plate)/(OD value of DMSO drug-free control well−mean OD value of Day 0 plate)*100.

[2] = test system: Paclitaxel-resistant human ovarian carcinoma cell A2780/TAX; assay: SRB anti-proliferative assay, drug-resistant A2780/TAX; conditions: read-out: Anti-proliferative IC50, A2780/TAX
Description: as §1, §2
(§3) We also evaluated the anti-proliferation activities of selected compounds against drug-resistant cancer cell lines.

[3] = test system: human lung cancer cells A549; assay: SRB anti-proliferative assay, A549; conditions: read-out: Anti-proliferative IC50, A549
Description: as §1, §2

[4] = test system: human breast cancer cells MCF7; assay: SRB anti-proliferative assay, MCF-7; conditions: read-out: Anti-proliferative IC50, MCF-7
Description: as §1, §2

[5] = test system: human liver cancer cell HepG2; assay: SRB anti-proliferative assay, HepG2; conditions: read-out: Anti-proliferative IC50, HepG2
Description: as §1, §2

[6] = test system: human colon cancer cells SW480; assay: SRB anti-proliferative assay, SW480; conditions: read-out: Anti-proliferative IC50, SW480
Description: as §1, §2

[7] = test system: human colon cancer cells HCT8; assay: SRB anti-proliferative assay, HCT-8; conditions: read-out: Anti-proliferative IC50, HCT-8
Description: as §1, §2

[8] = test system: doxorubicin resistant breast cancer cell MCF-7/DOX; assay: SRB anti-proliferative assay, drug-resistant MCF-7/DOX; conditions: Homo sapiens, MCF7-DOX, read-out: Anti-proliferative IC50, MCF-7/DOX
Description: as §1, §2, §3

[9] = test system: cis-platinum resistant human lung cancer cell A549/CDDP; assay: SRB anti-proliferative assay, drug-resistant A549/CDDP; conditions: read-out: Anti-proliferative IC50, A549/CDDP
Description: as §1, §2, §3

[10] = test system: human ovary cancer cells A2780; assay: SRB anti-proliferative assay, A2780; conditions: read-out: Anti-proliferative IC50, A2780
Description: as §1, §2

[11] = test system: incristine resistant human ileocecum carcinoma cell HCT-8/VCT; assay: SRB anti-proliferative assay, drug-resistant HCT-8/VCT; conditions: HCT8/VCT, read-out: Anti-proliferative IC50, HCT-8/VCT
Description: as §1, §2, §3

[12] = paclitaxel-resistant A2780/TAX, SRB
[13] = doxorubicin resistant MCF-7/DOX, SRB
[14] = cis-platinum resistant A549/CDDP, SRB
[15] = vincristine-resistant HCT-8/VCT, SRB

| SMILES | IC50 ([1]; CNE-2, CNE2, SRB, 48 h) | IC50 [2, 12] | IC50 ([3]; A549, SRB, 48 h) | IC50 ([4]; MCF7, MCF-7, SRB, 48 h) | IC50 ([5]; HepG2, SRB, 48 h) | IC50 ([6]; SW480, SRB, 48 h) | IC50 ([7]; HCT-8, SRB, 48 h) | IC50 [8, 13] | IC50 [9, 14] | IC50 ([10]; A2780, SRB, 48 h) | IC50 [11, 15] | other results |
| --- | --- | --- | --- | --- | --- | --- | --- | --- | --- | --- | --- | --- |
| COc1ccc(/C=C/C(=O)c2ccccc2-c2cccc(F)c2)cc1OP(=O)(O)O [compound 10, (E)-(5-(3-(3′-Fluoro[1,1′-biphenyl]-2-yl)-3-oxoprop-1-en-1-yl)-2-Methoxyphenol) phosphate ester] | – | – | – | – | – | – | – | – | – | – | – | IC50 ([1]; CNE-2, 48 h): 30 nM; IC50 ([2]; A2780/TAX): 92 nM; IC50 ([3]; A549, 48 h): 10 nM; IC50 ([4]; MCF7, 48 h): 51 nM; IC50 ([5]; HepG2, 48 h): 10 nM; IC50 ([6]; SW480, 48 h): 9 nM; IC50 ([7]; HCT-8, 48 h): 61 nM; IC50 [8]: 10 nM; IC50 ([9]; A549/CDDP): 102 nM; IC50 ([10]; A2780, 48 h): 59 nM; IC50 [11]: 115 nM |
| COc1ccc(/C=C/C(=O)c2ccccc2-c2cccc(F)c2)cc1S(=O)(=O)O [compound 23, (E)-5-(3-(3′-Fluoro[1,1′-biphenyl]-2-yl)-3-oxoprop-1-en-1-yl)-2-methoxy benzenesulfonic acid] | 16 nM | 53 nM | 14 nM | 42 nM | 12 nM | 10 nM | 12 nM | 3 nM | 42 nM | 10 nM | 62 nM | – |
| O=C(O)c1cccc(/C=C/C(=O)c2ccccc2-c2cccc(F)c2)c1 [compound 20] | 21 nM | 120 nM | 45 nM | 79 nM | 29 nM | 49 nM | 28 nM | 54 nM | 221 nM | 35 nM | 119 nM | – |
| COc1ccc(/C=C/C(=O)c2ccccc2-c2ccc(F)cc2)cc1OP(=O)(O)O [compound 11, (E)-(5-(3-(4′-Fluoro[1,1′-biphenyl]-2-yl)-3-oxoprop-1-en-1-yl)-2-Methoxyphenol) phosphate ester] | – | – | – | – | – | – | – | – | – | – | – | IC50 ([1]; CNE-2, 48 h): 52 nM; IC50 ([2]; A2780/TAX): 125 nM; IC50 ([3]; A549, 48 h): 23 nM; IC50 ([4]; MCF7, 48 h): 96 nM; IC50 ([5]; HepG2, 48 h): 39 nM; IC50 ([6]; SW480, 48 h): 22 nM; IC50 ([7]; HCT-8, 48 h): 88 nM; IC50 [8]: 26 nM; IC50 ([9]; A549/CDDP): 301 nM; IC50 ([10]; A2780, 48 h): 65 nM; IC50 [11]: 263 nM |
| O=C(/C=C/c1ccc(O)c(S(=O)(=O)O)c1)c1ccccc1-c1cccc(F)c1 [compound 21, (E)-5-(3-(3′-Fluoro[1,1′-biphenyl]-2-yl)-3-oxoprop-1-en-1-yl)-2-Hydroxybenzenesulfonic acid] | 19 nM | 123 nM | 18 nM | 49 nM | 18 nM | 16 nM | 20 nM | 11 nM | 74 nM | 16 nM | 69 nM | – |
| COc1ccc(-c2ccccc2C(=O)/C=C/c2ccc(N(C)C)cc2)c(OC)c1OC [compound 9, (E)-1-(2′,3′,4′-trimethoxy[1,1′-biphenyl]-2-yl)-3-(4-(Dimethylamino)phenyl)prop-2-en-1-one] | 53 nM | 156 nM | 85 nM | 124 nM | 72 nM | 37 nM | 153 nM | 53 nM | 401 nM | 117 nM | 169 nM | – |
| CC(=O)O[C@H]1C(=O)[C@@]2(C)[C@H]([C@H](OC(=O)c3ccccc3)[C@]3(O)C[C@H](OC(=O)[C@H](O)[C@@H](NC(=O)c4ccccc4)c4ccccc4)C(C)=C1C3(C)C)[C@]1(OC(C)=O)CO[C@@H]1C[C@@H]2O [TAX, paclitaxel, reference compound] | – | – | – | – | – | – | – | – | 9 nM | – | 2600 nM | – |
| N#Cc1ccc(/C=C/C(=O)c2ccccc2-c2cccc(F)c2)cc1 [compound 14, (E)-1-(3′-Fluoro[1,1′-biphenyl]-2-yl)-3-(4-cyanophenyl)prop-2-en-1-one] | 61 nM | 375 nM | 88 nM | 128 nM | 65 nM | 43 nM | 102 nM | 132 nM | 468 nM | 122 nM | 386 nM | – |
| CC[C@]1(O)C[C@H]2CN(CCc3c([nH]c4ccccc34)[C@@](C(=O)OC)(c3cc4c(cc3OC)N(C=O)[C@H]3[C@@](O)(C(=O)OC)[C@H](OC(C)=O)[C@]5(CC)C=CCN6CC[C@]43[C@@H]65)C2)C1 [VCT, vincristine, reference compound] | – | 927 nM | – | – | – | – | – | 4250 nM | 56 nM | – | 1920 nM | – |
